We go through 6 compounds from patent US20210301315A1, “METHODS FOR TREATING POLYMICROBIAL INFECTIONS” (priority 2017, published 2021).

The test system of assay [1] is bacterial organisms present in patient urine sample. The experiment in a line: Antibiotic Resistance (ABR) assay utilizing agar-containing medium. The class given is cell-based. As to conditions: for overall sensitivity of the bacteria in the sample to the antibiotic (in words): Example 2 sample. As to the method:
Urine samples suitable for processing with this assay are collected, transported, and stored using BD Vacutainer (gray top) tubes or other suitable leak-proof sterile container. Urine samples may be held at room temperature for 48 hours before test results are compromised.
Antibiotic stocks are stored at 2-8° C. and protected from direct sunlight. Prepared antibiotic stock solutions were aliquoted into a 96-deep well plate (Thermo Fisher Scientific) to form an Antibiotic Source Plate, as shown in FIG. 11 and identified by antibiotic name and concentration (μg/mL; 10× final concentration). […] One well was designated AB-blend which contained a combination of antibiotics to ensure there was no bacterial growth.
One hundred microliters of Mueller-Hinton agar medium was aliquoted into each appropriate well position of a 96-well microplate (VIS 96/F-PS, Eppendorf). The medium was allowed to solidify at room temperature for at least 10 min.
The antibiotics (10 μL) at various concentrations were then aliquoted into desired wells from the Antibiotic Source Plate. After the antibiotics were introduced to the agar medium, the ABR microplates were allowed to sit for at least 1 hr before use. If long-term storage is required, ABR microplates containing antibiotic-infuse agar are stored at 2-8° C. in the dark.
At the time of testing, urine samples were diluted 1:20 in sterile saline and vortexed. Each patient sample utilized a single ABR microplate. Five microliters of diluted patient sample were added to each well of the room temperature microplate, the plate was sealed and incubated for 16-18 hr at 37° C.
After incubation, the plate was removed from the incubator and carefully uncovered. Two-hundred microliters of deionized water were added to each well to suspend cells present above the agar and the plates incubated at room temperature for 30 min. After 30 min, 100 μl from each well was removed to a new plate and the OD600 was determined in a spectrophotometer. Five separate reads were taken of each plate and a mean OD600 measurement calculated.
Controls include: No-antibiotic control, Negative control plate, and AB-Blend. No antibiotic control: Any well containing medium that is not infused with antibiotics to ensure viability of bacterial cells present in patient urine samples and included in each plate. […] Negative control plate: Microplate containing antibiotic-infused agar medium without addition of patient sample or cultured bacterial organisms to ensure non-contamination of reagents. AB-Blend: One or more wells containing a combination of antibiotics to ensure there is no bacterial growth.
The raw data was then “blanked” using the measurement obtained from the AB-Blend well, as depicted in Table 5.
(§1) To determine whether bacterial organisms present in the patient samples were resistant or sensitive to a particular antibiotic at a certain concentration, blanked OD readings were compared to a threshold OD600 of 0.025 (Table 6). Any OD measurement greater than or equal to this threshold was designated Resistant (R) meaning bacterial organisms present in patient sample were resistant to that particular antibiotic at that certain concentration. Any OD measurement less than this threshold was designated Sensitive (S) meaning bacterial organisms present in patient sample were sensitive to that particular antibiotic at that certain concentration.

Assay [2] shares this test system. The experiment in a line: Antibiotic Resistance (ABR) assay utilizing liquid growth medium. The class given is cell-based. The conditions noted are these: liquid medium; for overall sensitivity of the bacteria in the sample to the antibiotic (in words): Example 4 sample. As to the method:
Urine samples suitable for processing with this assay are collected, transported, and stored using BD Vacutainer tubes or other suitable leak-proof sterile containers. Urine samples may be held at room temperature for 48 hours before test results are compromised.
Antibiotic stocks are stored at 2-8° C. and protected from direct sunlight. Prepared antibiotic stock solutions were aliquoted into a 96-deep well plate (ThermoFisher Scientific) to form a 50× Antibiotic Source Plate and then diluted 1:5 to form a 10× Antibiotic Source Plate, as shown in FIG. 12 where each well is identified by antibiotic name and concentration (μg/mL; 10× final concentration). […] One well was assigned sodium azide to ensure no bacterial growth would be observed in that well.
Twenty microliters of each antibiotic solution were aliquoted into the pre-determined wells of a 96-well microplate (VIS 96/F-PS, Eppendorf) from the 10× Antibiotic Source Plate to create ABR testing plates for inoculation. These ABR testing plates were allowed to sit for up to 24 hours before use at 2-8° C. in the dark.
At the time of testing, urine samples were centrifuged to concentrate any bacterial cells and then mixed with liquid Mueller-Hinton medium and incubated for 6-16 hours at 37° C. After this initial incubation, the sample is diluted to 0.5-0.6 McF in saline and then 500 μl of that suspension was added to […] of Mueller-Hinton medium. One-hundred and eighty microliters of the diluted sample is then aliquoted to each well of the ABR microplate already containing 10× antibiotic solution, bringing all of the antibiotics to the desired final concentration. The plate is then sealed and incubated for 12-16 hours at 37° C.
After incubation, the plate was removed from the incubator and carefully uncovered and the OD600 was determined for each appropriate well by spectrophotometer. Five separate measurements were taken of each well on a plate and the mean OD600 measurement calculated for each well.
Controls are depicted in Table 10.
The raw data was then “blanked” using the measurement obtained from the Na-Azide well, as depicted in Table 14.
as §1, with “0.065” for “0.025”, “15). An” for “6). Any”

With `C[C@@H](O)[C@H]1C(=O)N2C(C(=O)O)=C(S[C@@H]3CN[C@H](C(=O)N(C)C)C3)[C@H](C)[C@H]12` [Meropenem, meropenem], the “overall sensitivity of the bacteria in the sample to the antibiotic (in words)” value (“overall sensitivity of the bacteria” for short) in assay [1] is on record as “sensitive”. Besides, the “Blanked (OD600 minus AB-Blend well)” value is 0.0008 in assay [1] (antibiotic 1 μg/mL), 0.0004 in assay [1] (antibiotic 2 μg/mL), 0.0006 in assay [1] (antibiotic 4 μg/mL) and 0.0001 in assay [1] (antibiotic 8 μg/mL). Besides, the “Mean (OD600)” value in assay [1] (antibiotic 1 μg/mL) is listed as 0.0392; in assay [1] (antibiotic 2 μg/mL) it was 0.0388; in assay [1] (antibiotic 4 μg/mL), 0.0390; in assay [1] (antibiotic 8 μg/mL), 0.0385; in assay [2] (antibiotic 1 μg/mL) it was 0.2198; in assay [2] (antibiotic 2 μg/mL), 0.1928. For the same compound, the “Mean (OD600)” value stood at 0.1556 in assay [2] (antibiotic 4 μg/mL) and 0.0496 in assay [2] (antibiotic 8 μg/mL). Besides, the “Blanked (OD600 minus Na-Azide well)” value in assay [2] (antibiotic 1 μg/mL) is 0.1741; in assay [2] (antibiotic 2 μg/mL) it was 0.1471; in assay [2] (antibiotic 4 μg/mL) it was 0.1099; in assay [2] (antibiotic 8 μg/mL) it was 0.0039.
Regarding `CO/N=C(\C(=O)N[C@@H]1C(=O)N2C(C(=O)O)=C(CSc3nc(=O)c(=O)[nH]n3C)CS[C@H]12)c1csc(N)n1` [Ceftriaxone, ceftriaxone], the “overall sensitivity of the bacteria” value in assay [1] is given as “sensitive”. For the same compound, the “Blanked (OD600 minus AB-Blend well)” value in assay [1] (antibiotic 1 μg/mL) is 0.0061; in assay [1] (antibiotic 2 μg/mL), 0.0048; in assay [1] (antibiotic 4 μg/mL), 0.0021; in assay [1] (antibiotic 8 μg/mL), 0.0008; in assay [1] (antibiotic 16 μg/mL), 0.0007; in assay [1] (antibiotic 32 μg/mL), 0.0002. Further, in assay [1] (antibiotic 64 μg/mL), the “Blanked (OD600 minus AB-Blend well)” value amounted to 0.0001. Moreover, the “Mean (OD600)” value came to 0.0445 in assay [1] (antibiotic 1 μg/mL); 0.0432 in assay [1] (antibiotic 2 μg/mL); 0.0405 in assay [1] (antibiotic 4 μg/mL); 0.0392 in assay [1] (antibiotic 8 μg/mL); 0.0386 in assay [1] (antibiotic 32 μg/mL); 0.0385 in assay [1] (antibiotic 64 μg/mL). The “Mean (OD600)” value stood at 0.2485 in assay [2] (antibiotic 1 μg/mL), 0.2357 in assay [2] (antibiotic 4 μg/mL), 0.2449 in assay [2] (antibiotic 8 μg/mL) and 0.2356 in assay [2] (antibiotic 64 μg/mL). Moreover, the “Blanked (OD600 minus Na-Azide well)” value in assay [2] (antibiotic 1 μg/mL) turned out to be 0.2028; in assay [2] (antibiotic 4 μg/mL), 0.1900; in assay [2] (antibiotic 8 μg/mL), 0.1992; in assay [2] (antibiotic 64 μg/mL) it was 0.1899.
`CN[C@H](CC(C)C)C(=O)N[C@H]1C(=O)N[C@@H](CC(N)=O)C(=O)N[C@H]2C(=O)N[C@H]3C(=O)N[C@H](C(=O)N[C@H](C(=O)O)c4cc(O)cc(O)c4-c4cc3ccc4O)[C@H](O)c3ccc(c(Cl)c3)Oc3cc2cc(c3O[C@@H]2O[C@H](CO)[C@@H](O)[C@H](O)[C@H]2O[C@H]2C[C@](C)(N)[C@H](O)[C@H](C)O2)Oc2ccc(cc2Cl)[C@H]1O` [Vancomycin, vancomycin]: the “Mean (OD600)” value in assay [1] (antibiotic 16 μg/mL) was determined as 0.4918; in assay [2] (antibiotic 1 μg/mL), 0.0504; in assay [2] (antibiotic 2 μg/mL) it was 0.0435; in assay [2] (antibiotic 4 μg/mL) it was 0.0425; in assay [2] (antibiotic 16 μg/mL), 0.0431; in assay [2] (antibiotic 32 μg/mL), 0.0426. For the same compound, the “Blanked (OD600 minus Na-Azide well)” value was 0.0047 in assay [2] (antibiotic 1 μg/mL); −0.0022 in assay [2] (antibiotic 2 μg/mL); −0.0032 in assay [2] (antibiotic 4 μg/mL); −0.0026 in assay [2] (antibiotic 16 μg/mL); −0.0031 in assay [2] (antibiotic 32 μg/mL). Further, the “overall sensitivity of the bacteria” value in assay [2] is “sensitive”.
With `CC1(C)S[C@@H]2[C@H](NC(=O)[C@H](N)c3ccccc3)C(=O)N2[C@H]1C(=O)O` [Ampicillin, ampicillin], the “Blanked (OD600 minus AB-Blend well)” value in assay [1] (antibiotic 8 μg/mL) amounted to 0.4496; in assay [1] (antibiotic 16 μg/mL), 0.4838; in assay [1] (antibiotic 32 μg/mL) it was 0.4440. Moreover, the “Mean (OD600)” value in assay [1] (antibiotic 8 μg/mL) turned out to be 0.4880; in assay [1] (antibiotic 16 μg/mL), 0.5222; in assay [1] (antibiotic 32 μg/mL), 0.4824; in assay [2] (antibiotic 8 μg/mL), 0.0417; in assay [2] (antibiotic 16 μg/mL), 0.0419; in assay [2] (antibiotic 32 μg/mL) it was 0.0418. The “Blanked (OD600 minus Na-Azide well)” value in assay [2] (antibiotic 8 μg/mL) is −0.0040; in assay [2] (antibiotic 16 μg/mL), −0.0038; in assay [2] (antibiotic 32 μg/mL) it was −0.0039. Further, the “overall sensitivity of the bacteria” value in assay [2] was “sensitive”.
In the case of `O=C(O)c1cn(C2CC2)c2cc(N3CCNCC3)c(F)cc2c1=O` [Ciprofloxacin, ciprofloxacin], the “overall sensitivity of the bacteria” value in assay [1] and in assay [2] was “sensitive” in each case. Further, the “Blanked (OD600 minus AB-Blend well)” value in assay [1] (antibiotic 1 μg/mL) is on record as 0.0024; in assay [1] (antibiotic 2 μg/mL), 0.0030; in assay [1] (antibiotic 4 μg/mL), 0.0003. In addition, the “Mean (OD600)” value in assay [1] (antibiotic 1 μg/mL) stood at 0.0408; in assay [1] (antibiotic 2 μg/mL), 0.0414; in assay [1] (antibiotic 4 μg/mL), 0.0387; in assay [2] (antibiotic 1 μg/mL), 0.0441; in assay [2] (antibiotic 4 μg/mL), 0.0423. Moreover, the “Blanked (OD600 minus Na-Azide well)” value in assay [2] (antibiotic 1 μg/mL) is reported as −0.0016; in assay [2] (antibiotic 4 μg/mL), −0.0034.
Take `CO[C@@]1(NC(=O)Cc2cccs2)C(=O)N2C(C(=O)O)=C(COC(N)=O)CS[C@@H]21` [Cefoxitin, cefoxitin]: the “overall sensitivity of the bacteria” value in assay [1] is on record as “sensitive”. Further, the “Blanked (OD600 minus AB-Blend well)” value in assay [1] (antibiotic 4 μg/mL) is recorded as 0.0017; in assay [1] (antibiotic 8 μg/mL) it was 0.0008; in assay [1] (antibiotic 16 μg/mL), 0.0005; in assay [1] (antibiotic 32 μg/mL) it was 0.0005. Moreover, the “Mean (OD600)” value in assay [1] (antibiotic 4 μg/mL) is on record as 0.0401; in assay [1] (antibiotic 8 μg/mL) it was 0.0392; in assay [1] (antibiotic 16 μg/mL), 0.0389; in assay [1] (antibiotic 32 μg/mL) it was 0.0389; in assay [2] (antibiotic 4 μg/mL), 0.2202; in assay [2] (antibiotic 8 μg/mL) it was 0.2288. In assay [2] (antibiotic 32 μg/mL), the “Mean (OD600)” value came to 0.2348. Besides, the “Blanked (OD600 minus Na-Azide well)” value is recorded as 0.1745 in assay [2] (antibiotic 4 μg/mL), 0.1831 in assay [2] (antibiotic 8 μg/mL) and 0.1891 in assay [2] (antibiotic 32 μg/mL).
